Test results: PubChem BioAssay (NCI)
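Step 1: Grow cells in 96-well plates. Step 2: Expose to compound for 48 hours at 5 concentrations. Step 3: Interpolate endpoints linearly; if unreached, use highest concentration. Definition used: TGI = concentration required for complete inhibition of growth.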

Assays:
Experiment in all cases: NCI anticancer screen, dose series, 48 h
PC-3 prostate = system: PC-3 prostate
NCI-H23 lung = system: NCI-H23 lung
SF-268 CNS = system: SF-268 CNS
T-47D breast = system: T-47D breast
SNB-19 CNS = system: SNB-19 CNS
TK-10 renal = system: TK-10 renal
SN12C renal = system: SN12C renal
ACHN renal = system: ACHN renal
RXF 393 renal = system: RXF 393 renal
UACC-62 melanoma = system: UACC-62 melanoma
LOX IMVI melanoma = system: LOX IMVI melanoma
OVCAR-4 ovarian = system: OVCAR-4 ovarian
K-562 leukemia = system: K-562 leukemia
M14 melanoma = system: M14 melanoma
SK-OV-3 ovarian = system: SK-OV-3 ovarian
MDA-MB-231 breast = system: MDA-MB-231 breast
COLO 205 colon = system: COLO 205 colon
IGROV1 ovarian = system: IGROV1 ovarian
NCI-H226 lung = system: NCI-H226 lung
HOP-92 NSCLC = system: HOP-92 NSCLC
HCC-2998 colon = system: HCC-2998 colon
SW-620 colon = system: SW-620 colon
NCI-H522 lung = system: NCI-H522 lung
A498 renal = system: A498 renal
SK-MEL-2 melanoma = system: SK-MEL-2 melanoma
MOLT-4 leukemia = system: MOLT-4 leukemia
KM12 colon = system: KM12 colon
HT29 colon = system: HT29 colon
OVCAR-8 ovarian = system: OVCAR-8 ovarian
UACC-257 melanoma = system: UACC-257 melanoma
SK-MEL-28 melanoma = system: SK-MEL-28 melanoma
OVCAR-3 ovarian = system: OVCAR-3 ovarian
DU-145 prostate = system: DU-145 prostate
786-0 renal = system: 786-0 renal
UO-31 renal = system: UO-31 renal
SF-295 CNS = system: SF-295 CNS
HL-60(TB) leukemia = system: HL-60(TB) leukemia
MDA-MB-435 = system: MDA-MB-435
CAKI-1 renal = system: CAKI-1 renal
MCF7 breast = system: MCF7 breast
HOP-62 NSCLC = system: HOP-62 NSCLC
U251 CNS = system: U251 CNS
HCT-116 colon = system: HCT-116 colon
EKVX NSCLC = system: EKVX NSCLC
A549 NSCLC = system: A549 NSCLC
NCI/ADR-RES ovarian = system: NCI/ADR-RES ovarian
SF-539 CNS = system: SF-539 CNS
MDA-N = system: MDA-N
OVCAR-5 ovarian = system: OVCAR-5 ovarian
MALME-3M melanoma = system: MALME-3M melanoma
SNB-75 CNS = system: SNB-75 CNS
HCT-15 colon = system: HCT-15 colon
SR leukemia = system: SR leukemia
NCI-H460 lung = system: NCI-H460 lung
CCRF-CEM leukemia = system: CCRF-CEM leukemia

Measured: TGI

O=c1[nH]c(=O)n(COCCOCc2ccccc2)cc1Nc1ccccc1
> 100 µM: all assays above
